Where two headings read alike, the source gives them in different places.
Target: T1, CCXCKR2 receptor (Homo sapiens, UniProt P25106)
T1 construct: expressed in transfected cells; host or cells: MDA-MB-435S transfected with pcDNA3.1(+)-hRDC1 and/or MCF-7 (endogenous receptor)
Assay: Displacement of 125I-labeled SDF-1 from the CCXCKR2 receptor on MCF-7 and/or CCXCKR2-transfected MDA-MB-435S cells (radioligand binding, filtration)

[1] = 125I SDF-1, 3 hr at 4° C., MCF-7 and/or MDA-MB-435S cells, read-out: Activity (concentration displacing at least 50% of the SDF-1 from the CCXCKR2 receptor)

T1 sequence (P25106 whole entry): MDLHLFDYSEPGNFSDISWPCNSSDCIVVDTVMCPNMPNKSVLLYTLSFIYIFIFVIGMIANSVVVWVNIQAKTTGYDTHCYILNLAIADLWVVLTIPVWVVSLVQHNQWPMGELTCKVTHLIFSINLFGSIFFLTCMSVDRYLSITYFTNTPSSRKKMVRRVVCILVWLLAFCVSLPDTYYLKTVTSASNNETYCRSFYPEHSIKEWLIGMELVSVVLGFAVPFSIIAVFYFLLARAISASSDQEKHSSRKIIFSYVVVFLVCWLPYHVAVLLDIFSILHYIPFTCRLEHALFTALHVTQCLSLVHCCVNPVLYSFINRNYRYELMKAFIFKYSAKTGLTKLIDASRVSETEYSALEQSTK

Cc1cccc(Cn2cc(C(=O)c3ccncc3)c(=O)c3ccccc32)c1 [Example 17]
IC50 [1]: 500 to 20000 nM

Cc1ncc(C(=O)c2cn(Cc3cccc(Br)n3)c3ccccc3c2=O)n1C [Example 152]
IC50 [1]: 500 to 20000 nM

COc1ccc(C(=O)c2cn(Cc3cccc(Br)n3)c3nc(C(F)(F)F)ccc3c2=O)cc1F [Example 226]
IC50 [1]: 500 to 20000 nM

Cc1ccc(C(=O)c2c(C)n(Cc3cccc(Br)n3)c3ccccc3c2=O)cc1C [Example 72]
IC50 [1]: 500 to 20000 nM

COCc1cccc(Cn2cc(C(=O)c3ccc(C)c(C)c3)c(=O)c3ccccc32)n1 [Example 111]
IC50 [1]: 100 to 500 nM

COc1ccc(C(=O)c2cn(Cc3cccc(Br)n3)c3ccccc3c2=O)cc1F [Example 145]
IC50 [1]: < 100 nM

CC(C)c1ccc(C(=O)c2cn(Cc3cccc(Br)n3)c3ccccc3c2=O)cc1 [Example 148]
IC50 [1]: < 100 nM

Cc1ccc(C(=O)c2cn(CC3CCCCC3)c3ccccc3c2=O)cc1C [Example 39]
IC50: < 100 nM

O=C(c1ncc(Br)cn1)c1cn(Cc2cccc(Br)n2)c2ccccc2c1=O [Example 128]
IC50 [1]: 500 to 20000 nM

Cc1ccc(C(=O)c2cn(Cc3cnccn3)c3ccccc3c2=O)cc1C [Example 57]
IC50 [1]: < 100 nM

COc1ccc(C(=O)c2cn(Cc3cccc(Cl)c3)c3ccc(C)nc3c2=O)cc1C [Example 234]
IC50 [1]: 100 to 500 nM

Cc1ccc(C(=O)c2cn(Cc3cccnc3)c3ccccc3c2=O)cc1C [Example 10]
IC50 [1]: 500 to 20000 nM

Cc1ccc(C(=O)c2cn(Cc3ccc(C(F)(F)F)o3)c3ccccc3c2=O)cc1C [Example 65]
IC50 [1]: < 100 nM

COc1ccc(C(=O)c2cn(Cc3cccc(C#N)n3)c3ncccc3c2=O)cc1C [Example 194]
IC50 [1]: < 100 nM

O=C(c1ccc2c(c1)OCCO2)c1cn(Cc2cccc(Br)n2)c2ccccc2c1=O [Example 113]
IC50 [1]: < 100 nM

Cc1ccc(C(=O)c2cn(Cc3cccc(S(C)(=O)=O)n3)c3ccccc3c2=O)cc1C [Example 78]
IC50 [1]: 100 to 500 nM

O=C(c1ccc(N2CCCC2)nc1)c1cn(Cc2cccc(Br)n2)c2ccccc2c1=O [Example 241]
IC50 [1]: 100 to 500 nM

Cc1ccc(C(=O)c2cn(Cc3cnn[nH]3)c3ccccc3c2=O)cc1C [Example 48]
IC50 [1]: 100 to 500 nM

CN(C)c1ccc(C(=O)c2cn(Cc3cccc(Br)n3)c3ccccc3c2=O)cc1 [Example 120]
IC50 [1]: < 100 nM

CN(C)C(=O)c1cccc(C(=O)c2cn(Cc3cccc(Br)n3)c3ccccc3c2=O)c1 [Example 180]
IC50 [1]: < 100 nM

COc1ccc(C(=O)c2cn(Cc3cccc(Br)c3)c3ccccc3c2=O)cn1 [Example 239]
IC50 [1]: 100 to 500 nM

Cc1cccc(Cn2cc(C(=O)c3cccnc3)c(=O)c3ccccc32)n1 [Example 35]
IC50 [1]: 500 to 20000 nM

O=C(c1ccncc1)c1cn(Cc2ccccc2F)c2ccccc2c1=O [Example 15]
IC50 [1]: 500 to 20000 nM

Cc1cccc(C(=O)c2cn(Cc3ccccn3)c3ccccc3c2=O)c1 [Example 22]
IC50 [1]: < 100 nM

O=C(c1ccc2c(c1)OCCO2)c1cn(Cc2cccc(C(F)(F)F)n2)c2ccccc2c1=O [Example 229]
IC50 [1]: 100 to 500 nM

Cc1ccc(C(=O)c2cn(Cc3cccc(Br)n3)c3cc(F)ccc3c2=O)cc1C [Example 59]
IC50 [1]: < 100 nM

COc1ccc(C(=O)c2cn(Cc3cccc(C)n3)c3ncccc3c2=O)cc1C [Example 162]
IC50 [1]: < 100 nM

Cc1cccc(Cn2cc(C(=O)c3cnc(C)c(C)c3)c(=O)c3cc(F)ccc32)n1 [Example 124]
IC50 [1]: < 100 nM

Cc1cccc(Cn2cc(C(=O)c3cnc(C)c(C)c3)c(=O)c3cc(F)ccc32)c1 [Example 55]
IC50 [1]: < 100 nM

Cc1cc(C(=O)c2cn(Cc3cccc(Br)n3)c3ccccc3c2=O)c[n+]([O-])c1C [Example 112]
IC50 [1]: 100 to 500 nM

CCc1ccc(C(=O)c2cn(Cc3cccc(Cl)c3)c3ccccc3c2=O)cn1 [Example 244]
IC50 [1]: 100 to 500 nM

COc1ccc(C(=O)c2cn(Cc3cccc(Br)n3)c3ccccc3c2=O)cc1C1OCCCO1 [Example 136]
IC50 [1]: < 100 nM

COc1ccc(C(=O)c2cn(Cc3cccc(N)n3)c3ccccc3c2=O)cc1C [Example 209]
IC50 [1]: 100 to 500 nM

Cc1ccc(C(=O)c2cn(Cc3ccccc3F)c3cc4c(cc3c2=O)OC(F)(F)O4)cc1C [Example 19]
IC50 [1]: 500 to 20000 nM

Cc1ccc(C(=O)c2cn(Cc3cccc(-c4cncnc4)n3)c3ccccc3c2=O)cc1C [Example 44]
IC50 [1]: < 100 nM

Cc1ccc(C(=O)c2cn(Cc3cccc(Br)[n+]3[O-])c3ccccc3c2=O)cc1C [Example 88]
IC50 [1]: 100 to 500 nM

Cc1ccc2c(=O)c(C(=O)c3cnc(C)c(C)c3)cn(Cc3cccc(Br)n3)c2n1 [Example 146]
IC50 [1]: 100 to 500 nM

Cc1ccc(C(=O)c2cn(Cc3cccnc3)c3cc4c(cc3c2=O)OCCO4)cc1C [Example 12]
IC50 [1]: 500 to 20000 nM

COc1ccc(C(=O)c2cn(Cc3cccc(C)n3)c3ccccc3c2=O)cc1F [Example 183]
IC50 [1]: < 100 nM

Cc1ccc(C(=O)c2cn(Cc3cccc(Br)n3)c3ccccc3c2=O)nc1C [Example 64]
IC50 [1]: < 100 nM

Cc1ccc(C(=O)c2cn(Cc3ccncc3)c3cc4c(cc3c2=O)OCO4)cc1C [Example 3]
IC50 [1]: 500 to 20000 nM

O=C(c1ccc(Cl)nc1)c1cn(Cc2cccc(Br)n2)c2ccccc2c1=O [Example 188]
IC50 [1]: < 100 nM

O=C(c1ccc(Cl)s1)c1cn(Cc2cccc(Br)n2)c2ccccc2c1=O [Example 187]
IC50 [1]: < 100 nM

COC(=O)c1ccccc1C(=O)c1cn(Cc2cccc(Br)n2)c2ccccc2c1=O [Example 155]
IC50 [1]: < 100 nM

Cc1ccc(C(=O)c2cn(Cc3cccc(Br)n3)c3ccccc3c2=O)cc1C [Example 51]
IC50 [1]: < 100 nM

O=C(c1cccc(C(F)(F)F)n1)c1cn(Cc2cccc(Br)n2)c2ccccc2c1=O [Example 139]
IC50 [1]: 500 to 20000 nM

Cc1cccc(C(=O)c2cn(Cc3cccc(Br)n3)c3ccccc3c2=O)c1C [Example 103]
IC50 [1]: < 100 nM

Cc1ccc(C(=O)c2cn(Cc3ccccc3F)c3ccccc3c2=O)cc1C [Example 4]
IC50 [1]: < 100 nM

COc1ccc(C(=O)c2cn(Cc3cccc(Cl)c3)c3ccccc3c2=O)cc1 [Example 243]
IC50 [1]: < 100 nM

COc1ccc(C(=O)c2cn(Cc3cccc(Br)n3)c3ccc(C)nc3c2=O)cc1C [Example 215]
IC50 [1]: < 100 nM

CNCc1ccc(C(=O)c2cn(Cc3cccc(Br)n3)c3ccccc3c2=O)cc1 [Example 153]
IC50 [1]: 100 to 500 nM

COc1ccc(C(=O)c2cn(Cc3cccc(C)n3)c3ccc(C)nc3c2=O)cc1C [Example 216]
IC50 [1]: 500 to 20000 nM

COc1ccc(C(=O)c2cn(Cc3cccc(C#N)n3)c3ccccc3c2=O)cc1C [Example 207]
IC50 [1]: < 100 nM

C[S+]([O-])c1ccc(C(=O)c2cn(Cc3cccc(Br)n3)c3ccccc3c2=O)cc1 (stereo not drawn) [Example 190]
IC50 [1]: 100 to 500 nM

Cc1ccc(C(=O)c2cn(Cc3nnsc3Cl)c3ccccc3c2=O)cc1C [Example 28, 1-(5-Chloro-[1,2,3]thiadiazol-4-ylmethyl)-3-(3,4-dimethyl-benzoyl)-1H-quinolin-4-one]
IC50 [1]: < 100 nM

O=C(c1ccc2c(c1)OCCO2)c1cn(Cc2cccc(C(F)(F)F)c2)c2ccccc2c1=O [Example 232]
IC50 [1]: 100 to 500 nM

Cc1cccc(Cn2cc(C(=O)c3ccc(C(C)C)cc3)c(=O)c3cccnc32)n1 [Example 165]
IC50 [1]: < 100 nM

Cc1cc(C(=O)c2cn(Cc3cccc(Br)n3)c3ccccc3c2=O)ccc1F [Example 203]
IC50 [1]: < 100 nM

CC(=O)Nc1cccc(Cn2cc(C(=O)c3ccc(C)c(C)c3)c(=O)c3ccccc32)n1 [Example 52]
IC50 [1]: 100 to 500 nM

COc1cc(C(=O)c2cn(Cc3cccc(Br)n3)c3ncccc3c2=O)ccc1Cl [Example 172]
IC50 [1]: < 100 nM

O=C(c1cccnc1)c1cn(Cc2ccccc2F)c2ccccc2c1=O [Example 33]
IC50 [1]: 500 to 20000 nM

Cc1ccc2c(n1)c(=O)c(C(=O)c1ccc(C)c(C)c1)cn2Cc1cccc(Br)n1 [Example 119]
IC50 [1]: < 100 nM

Cc1ccc(C(=O)c2cn(Cc3cccc(Br)n3)c3ccccc3c2=O)c(C)n1 [Example 185]
IC50 [1]: < 100 nM

Cc1cccc(Cn2cc(C(=O)c3cnc4c(c3)OCCO4)c(=O)c3cc(C)c(C)nc32)n1 [Example 191]
IC50 [1]: 100 to 500 nM

Cc1ccc(C(=O)c2cn(C(C)c3cccc(Br)n3)c3ccccc3c2=O)cc1C (stereo not drawn) [Example 75]
IC50 [1]: < 100 nM

Cc1cccc(Cn2cc(C(=O)c3cnccn3)c(=O)c3ccccc32)c1 [Example 62]
IC50 [1]: 500 to 20000 nM

COc1ccc(C(=O)c2cn(Cc3cccc(Br)n3)c3ncccc3c2=O)cc1OC [Example 193]
IC50 [1]: < 100 nM

Cc1nc(C(=O)c2cn(Cc3cccc(Br)n3)c3ccccc3c2=O)sc1C [Example 147]
IC50 [1]: < 100 nM

Cc1cccc(Cn2cc(C(=O)c3ccc(N(C)C)nc3)c(=O)c3ccccc32)n1 [Example 214]
IC50 [1]: 100 to 500 nM

O=C(c1ccc(Cl)cc1)c1cn(Cc2cccc(Br)n2)c2ccccc2c1=O [Example 200]
IC50 [1]: < 100 nM

CSc1cccc(Cn2cc(C(=O)c3ccc(C)c(C)c3)c(=O)c3ccccc32)n1 [Example 77]
IC50 [1]: < 100 nM

COc1ccc(C(=O)c2cn(Cc3cncc(C)n3)c3ccccc3c2=O)cc1F [Example 225]
IC50 [1]: < 100 nM

COc1ccc(C(=O)c2cn(Cc3cccc(C#N)n3)c3ccccc3c2=O)cc1F [Example 211]
IC50 [1]: < 100 nM

O=C(c1ccc(C(F)(F)F)nc1)c1cn(Cc2cccc(Br)n2)c2ccccc2c1=O [Example 133]
IC50 [1]: < 100 nM

Cc1ccc(C(=O)c2cn(Cc3ccccc3F)c3ccc(C(F)(F)F)cc3c2=O)cc1C [Example 14]
IC50 [1]: 500 to 20000 nM

Cc1ccc(C(=O)c2cn(Cc3ncccc3F)c3ccccc3c2=O)cc1C [Example 37]
IC50 [1]: < 100 nM

Cc1cccc(Cn2cc(C(=O)c3ccc(C)c(C)c3)c(=O)c3cc4c(cc32)OCCO4)c1 [Example 5]
IC50 [1]: 500 to 20000 nM

Cc1ccc(C(=O)c2cn(Cc3cccc(Br)n3)c3cccnc3c2=O)cc1C [Example 105]
IC50 [1]: < 100 nM

Cc1ccc(C(=O)c2cn(Cc3cccc(NC(=O)C(F)(F)F)n3)c3ccccc3c2=O)cc1C [Example 87]
IC50 [1]: < 100 nM

O=C(c1ccc2c(c1)OCCO2)c1cn(Cc2cccc(Br)c2)c2ccccc2c1=O [Example 231]
IC50 [1]: < 100 nM

Cc1ccc(C(=O)c2cn(Cc3ccccc3F)c3cc4c(cc3c2=O)OCCO4)cc1C [Example 7]
IC50 [1]: 500 to 20000 nM
